Results: patent US11793849B2, “Method of Chinese herbal medicine extract used for treating multiple diseases caused by drug resistant bacteria infection” (priority 2016, dated 2023)
Like-named read-outs stand apart in the source and are kept apart here.

What was measured:
[1] = tested on: MDRPA; assay: MIC determination, microdilution broth method;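 also: broth microdilution per NCCLS recommendations, testing Pithecellobium clypearia water or ethanol extracts against multidrug-resistant Pseudomonas aeruginosa, with MIC50 and MIC90 derived statistically from individual MICs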
Method: Determination methods of a Minimal Inhibitory Concentration (MIC) and a Minimum Bactericidal Concentration (MBC) of a test product: the MIC and the MBC of the Pithecellobium clypearia Benth water or ethanol extract to the MDRAB are determined by a microdilution broth method. And it is operated by referring to the microdilution broth method recommended by National Committee for Clinical Laboratory Standards (NCCLS).
By determining the MIC and the MBC of the drug and making statistics of the data to obtain MIC50, MIC90, MBC50 and MBC90, the effect of the MDRA resistance of the drug is evaluated.
Test method: the MDRPA (serial No.: P1-P20) strains are tested and are evaluated with reference to the method in the first embodiment.

[2] = tested on: MDRPA; assay: Checkerboard assay (combined-use MIC, FIC); format: cell-based, Pseudomonas aeruginosa; conditions: for FIC, all strains / MIC50 of the antibiotic after combined use / MIC90 of the antibiotic after combined use / reduction of the antibiotic's MIC50 vs single use / reduction of the antibiotic's MIC90 vs single use / share of strains with FIC ≤ 0.5: 20 MDRPAs; for combined-use MIC: EA (P. clypearia water extract) combined with AMK
Method in brief: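 Checkerboard combinations of S20b and antibiotic run per NCCLS method against ESBL E. coli, MDR A. baumannii and MDR P. aeruginosa.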

[3] = tested on: ESBL-producing ECO; assay: Checkerboard assay (combined-use MIC, FIC); format: cell-based, Escherichia coli; conditions: 20 ESBL-producing ECOs
Method: Test methods of the sensibilization effects of the test product to similar antibiotics: it is operated by referring to a checkerboard assay recommended by NCCLS.
The checkerboard assay is performed in a 96-pore sterile culture plate.
Calculation of a Fractional Inhibitory Concentration (FIC): FIC=S20b combined-use MIC/S20b single-use MIC+antibiotic combined-use MIC/antibiotic single-use MIC. By calculating the FIC, the combined antibacterial interaction between the EA and the antibiotic is evaluated, with synergistic effect for FIC≤0.5, additive effect for 0.5<FIC≤1, indifferent effect for 1<FIC≤2 and antagonistic effect for FIC>2. According to a sterile growth pore, the optimum concentration ratio between the EA and the antibiotic is founded out. At last, the effect of the EA to strengthen the efficacy of the antibiotic is evaluated.

[4] = tested on: ATCC25922; assay: MIC determination, control strain; format: cell-based
[5] = tested on: ATCC25922; assay: MIC determination, control strain ATCC25922; format: cell-based; conditions: EA = 95% ethanol extract
[6] = 20 MDRPAs, EA = 60% ethanol extract
[7] = 20 MDRPAs, EA = 95% ethanol extract
[8] = MDRPAs P1-P20, single use, EA=P. clypearia 10% ethanol extract
[9] = MDRPAs P1-P20, single use, EA=P. clypearia water extract
[10] = single use, 20 MDRPAs, section of the 10% ethanol extract
[11] = single use, 20 MDRPAs, section of the 60% ethanol extract
[12] = single use, 20 MDRPAs, section of the 95% ethanol extract
[13] = antibiotic with 10% ethanol extract
[14] = antibiotic with 60% ethanol extract
[15] = antibiotic with 95% ethanol extract
[16] = antibiotic with EA (water extract)

NCC[C@H](O)C(=O)N[C@@H]1C[C@H](N)[C@@H](O[C@H]2O[C@H](CN)[C@@H](O)[C@H](O)[C@H]2O)[C@H](O)[C@H]1O[C@H]1O[C@H](CO)[C@@H](O)[C@H](N)[C@H]1O [AMK, Amikacin]
70%: share of strains with FIC ≤ 0.5 [3, 14]
87.5%: reduction of the antibiotic's MIC90 vs single use [2, 13] | reduction of the antibiotic's MIC50 vs single use [2, 15] | reduction of the antibiotic's MIC90 vs single use [2, 15]
4 µg/mL: MIC ([1]; Pseudomonas aeruginosa, read-out: MIC (single use), strain P3, EA=P. clypearia 10% ethanol extract) | MIC ([1]; Pseudomonas aeruginosa, read-out: MIC (single use), strain P3, EA=P. clypearia water extract) | MIC ([1]; Pseudomonas aeruginosa, read-out: MIC (single use), strain P10, EA=P. clypearia 10% ethanol extract) | MIC ([1]; Pseudomonas aeruginosa, read-out: MIC (single use), strain P10, EA=P. clypearia water extract) | MIC90 of the antibiotic after combined use [2, 13] | MIC90 of the antibiotic after combined use [2, 15] | combined-use MIC ([2]; strain P18) | MIC50 of the antibiotic after combined use [3, 13] | MIC50 of the antibiotic after combined use [3, 14] | MIC50 of the antibiotic after combined use [3, 15] | MIC50 of the antibiotic after combined use ([3]; antibiotic with water extract) | MIC ([4]; EA = 10% ethanol extract) | MIC ([4]; EA = 60% ethanol extract) | MIC ([4]; EA = water extract, read-out: MIC) | MIC [5]
2 µg/mL: MIC ([1]; Pseudomonas aeruginosa, read-out: MIC (single use), strain P5, EA=P. clypearia 10% ethanol extract) | MIC ([1]; Pseudomonas aeruginosa, read-out: MIC (single use), strain P5, EA=P. clypearia water extract) | MIC ([1]; Pseudomonas aeruginosa, read-out: MIC (single use), strain P13, EA=P. clypearia 10% ethanol extract) | MIC ([1]; Pseudomonas aeruginosa, read-out: MIC (single use), strain P13, EA=P. clypearia water extract) | MIC ([1]; Pseudomonas aeruginosa, read-out: MIC (single use), strain P14, EA=P. clypearia 10% ethanol extract) | MIC ([1]; Pseudomonas aeruginosa, read-out: MIC (single use), strain P14, EA=P. clypearia water extract) | MIC ([1]; Pseudomonas aeruginosa, read-out: MIC (single use), strain P15, EA=P. clypearia 10% ethanol extract) | MIC ([1]; Pseudomonas aeruginosa, read-out: MIC (single use), strain P15, EA=P. clypearia water extract) | MIC ([1]; Pseudomonas aeruginosa, read-out: MIC (single use), strain P20, EA=P. clypearia 10% ethanol extract) | MIC ([1]; Pseudomonas aeruginosa, read-out: MIC (single use), strain P20, EA=P. clypearia water extract) | MIC90 of the antibiotic after combined use [2, 14] | MIC90 of the antibiotic after combined use [2, 16]
20%: share of strains with FIC ≤ 0.5 [2, 14]
0.12 µg/mL: MIC50 of the antibiotic after combined use [2, 15]
75%: reduction of the antibiotic's MIC50 vs single use [3, 13] | reduction of the antibiotic's MIC90 vs single use [3, 13] | reduction of the antibiotic's MIC50 vs single use [3, 14] | reduction of the antibiotic's MIC50 vs single use [3, 15] | reduction of the antibiotic's MIC90 vs single use [3, 15] | reduction of the antibiotic's MIC50 vs single use ([3]; antibiotic with water extract) | reduction of the antibiotic's MIC90 vs single use ([3]; antibiotic with water extract)
35%: share of strains with FIC ≤ 0.5 [2, 16]
0.5 µg/mL: combined-use MIC ([2]; strain P4) | combined-use MIC ([2]; strain P8) | combined-use MIC ([2]; strain P11)
1 µg/mL: MIC50 [1, 6] | MIC50 [1, 7] | MIC50 [1, 8] | MIC50 [1, 9] | MIC50 ([1]; Pseudomonas aeruginosa) | MIC ([1]; Pseudomonas aeruginosa, read-out: MIC (single use), strain P1, EA=P. clypearia 10% ethanol extract) | MIC ([1]; Pseudomonas aeruginosa, read-out: MIC (single use), strain P1, EA=P. clypearia water extract) | MIC ([1]; Pseudomonas aeruginosa, read-out: MIC (single use), strain P2, EA=P. clypearia 10% ethanol extract) | MIC ([1]; Pseudomonas aeruginosa, read-out: MIC (single use), strain P2, EA=P. clypearia water extract) | MIC ([1]; Pseudomonas aeruginosa, read-out: MIC (single use), strain P4, EA=P. clypearia 10% ethanol extract) | MIC ([1]; Pseudomonas aeruginosa, read-out: MIC (single use), strain P4, EA=P. clypearia water extract) | MIC ([1]; Pseudomonas aeruginosa, read-out: MIC (single use), strain P7, EA=P. clypearia 10% ethanol extract) | MIC ([1]; Pseudomonas aeruginosa, read-out: MIC (single use), strain P7, EA=P. clypearia water extract) | MIC ([1]; Pseudomonas aeruginosa, read-out: MIC (single use), strain P8, EA=P. clypearia 10% ethanol extract) | MIC ([1]; Pseudomonas aeruginosa, read-out: MIC (single use), strain P8, EA=P. clypearia water extract) | MIC ([1]; Pseudomonas aeruginosa, read-out: MIC (single use), strain P9, EA=P. clypearia 10% ethanol extract) | MIC ([1]; Pseudomonas aeruginosa, read-out: MIC (single use), strain P9, EA=P. clypearia water extract) | MIC ([1]; Pseudomonas aeruginosa, read-out: MIC (single use), strain P11, EA=P. clypearia 10% ethanol extract) | MIC ([1]; Pseudomonas aeruginosa, read-out: MIC (single use), strain P11, EA=P. clypearia water extract) | MIC ([1]; Pseudomonas aeruginosa, read-out: MIC (single use), strain P17, EA=P. clypearia 10% ethanol extract) | MIC ([1]; Pseudomonas aeruginosa, read-out: MIC (single use), strain P17, EA=P. clypearia water extract) | MIC ([1]; Pseudomonas aeruginosa, read-out: MIC (single use), strain P19, EA=P. clypearia 10% ethanol extract) | MIC ([1]; Pseudomonas aeruginosa, read-out: MIC (single use), strain P19, EA=P. clypearia water extract) | MIC50 [1, 10] | MIC50 [1, 11] | MIC50 [1, 12] | combined-use MIC ([2]; strain P3) | combined-use MIC ([2]; strain P10) | combined-use MIC ([2]; strain P20)
30%: share of strains with FIC ≤ 0.5 [2, 13]
50%: share of strains with FIC ≤ 0.5 [3, 13] | share of strains with FIC ≤ 0.5 [3, 15] | share of strains with FIC ≤ 0.5 ([3]; antibiotic with water extract)
16 µg/mL: MIC ([1]; Pseudomonas aeruginosa, read-out: MIC (single use), strain P18, EA=P. clypearia 10% ethanol extract) | MIC ([1]; Pseudomonas aeruginosa, read-out: MIC (single use), strain P18, EA=P. clypearia water extract) | MIC90 of the antibiotic after combined use [3, 13] | MIC90 of the antibiotic after combined use [3, 15] | MIC90 of the antibiotic after combined use ([3]; antibiotic with water extract)
32 µg/mL: MIC90 [1, 6] | MIC90 [1, 7] | MIC90 [1, 8] | MIC90 [1, 9] | MIC90 ([1]; Pseudomonas aeruginosa) | MIC ([1]; Pseudomonas aeruginosa, read-out: MIC (single use), strain P12, EA=P. clypearia 10% ethanol extract) | MIC ([1]; Pseudomonas aeruginosa, read-out: MIC (single use), strain P12, EA=P. clypearia water extract) | MIC90 [1, 10] | MIC90 [1, 11] | MIC90 [1, 12]
≤ 2: FIC, all strains [2, 13] | FIC, all strains [2, 14] | FIC, all strains [2, 15] | FIC, all strains [2, 16] | FIC, all strains [3, 13] | FIC, all strains [3, 14] | FIC, all strains [3, 15] | FIC, all strains ([3]; antibiotic with water extract)
256 µg/mL: MIC ([1]; Pseudomonas aeruginosa, read-out: MIC (single use), strain P6, EA=P. clypearia 10% ethanol extract) | MIC ([1]; Pseudomonas aeruginosa, read-out: MIC (single use), strain P6, EA=P. clypearia water extract) | MIC ([1]; Pseudomonas aeruginosa, read-out: MIC (single use), strain P16, EA=P. clypearia 10% ethanol extract) | MIC ([1]; Pseudomonas aeruginosa, read-out: MIC (single use), strain P16, EA=P. clypearia water extract)
8 µg/mL: combined-use MIC ([2]; strain P12) | MIC90 of the antibiotic after combined use [3, 14]
64 µg/mL: combined-use MIC ([2]; strain P6)
1 to 256 µg/mL: MIC Range [1, 6] | MIC Range [1, 7] | MIC Range [1, 8] | MIC Range [1, 9]
40%: share of strains with FIC ≤ 0.5 [2, 15]
93.75%: reduction of the antibiotic's MIC50 vs single use [2, 13] | reduction of the antibiotic's MIC50 vs single use [2, 14] | reduction of the antibiotic's MIC90 vs single use [2, 14] | reduction of the antibiotic's MIC50 vs single use [2, 16] | reduction of the antibiotic's MIC90 vs single use [2, 16]
0.0625 µg/mL: MIC50 of the antibiotic after combined use [2, 13] | MIC50 of the antibiotic after combined use [2, 14] | MIC50 of the antibiotic after combined use [2, 16] | combined-use MIC ([2]; strain P1) | combined-use MIC ([2]; strain P2) | combined-use MIC ([2]; strain P5) | combined-use MIC ([2]; strain P7) | combined-use MIC ([2]; strain P9) | combined-use MIC ([2]; strain P13) | combined-use MIC ([2]; strain P14) | combined-use MIC ([2]; strain P15) | combined-use MIC ([2]; strain P16) | combined-use MIC ([2]; strain P17) | combined-use MIC ([2]; strain P19)
